The target in one experiment is Estrogen receptor beta (Homo sapiens, UniProt Q92731). Put plainly: Binding affinity to human ERbeta.
In another experiment the target is T1, Estrogen receptor (Homo sapiens, UniProt P03372).
T1 sequence (P03372 whole entry): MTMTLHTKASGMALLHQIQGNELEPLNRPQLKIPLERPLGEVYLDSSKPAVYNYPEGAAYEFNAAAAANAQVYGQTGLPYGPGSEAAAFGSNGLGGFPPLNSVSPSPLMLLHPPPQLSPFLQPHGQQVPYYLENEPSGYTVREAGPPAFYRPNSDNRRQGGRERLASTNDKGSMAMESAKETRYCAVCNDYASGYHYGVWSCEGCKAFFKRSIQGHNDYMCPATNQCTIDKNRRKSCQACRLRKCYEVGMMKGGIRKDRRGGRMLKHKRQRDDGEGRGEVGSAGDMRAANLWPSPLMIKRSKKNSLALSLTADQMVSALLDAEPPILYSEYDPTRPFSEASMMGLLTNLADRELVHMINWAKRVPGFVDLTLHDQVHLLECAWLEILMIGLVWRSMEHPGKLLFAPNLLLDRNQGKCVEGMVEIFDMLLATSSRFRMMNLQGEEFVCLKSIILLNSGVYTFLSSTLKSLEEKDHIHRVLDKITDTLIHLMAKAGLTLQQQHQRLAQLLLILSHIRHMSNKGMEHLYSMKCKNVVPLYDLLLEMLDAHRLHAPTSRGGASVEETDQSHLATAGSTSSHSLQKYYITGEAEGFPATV
The experiment can be described thus: Binding affinity to human ERalpha.

pKi: −log10 of the molar value.

As a reminder, the pKi is −log10 of the Ki, conventionally taken in molar units.

Estrogen receptor beta, sequence (Q92731 whole entry): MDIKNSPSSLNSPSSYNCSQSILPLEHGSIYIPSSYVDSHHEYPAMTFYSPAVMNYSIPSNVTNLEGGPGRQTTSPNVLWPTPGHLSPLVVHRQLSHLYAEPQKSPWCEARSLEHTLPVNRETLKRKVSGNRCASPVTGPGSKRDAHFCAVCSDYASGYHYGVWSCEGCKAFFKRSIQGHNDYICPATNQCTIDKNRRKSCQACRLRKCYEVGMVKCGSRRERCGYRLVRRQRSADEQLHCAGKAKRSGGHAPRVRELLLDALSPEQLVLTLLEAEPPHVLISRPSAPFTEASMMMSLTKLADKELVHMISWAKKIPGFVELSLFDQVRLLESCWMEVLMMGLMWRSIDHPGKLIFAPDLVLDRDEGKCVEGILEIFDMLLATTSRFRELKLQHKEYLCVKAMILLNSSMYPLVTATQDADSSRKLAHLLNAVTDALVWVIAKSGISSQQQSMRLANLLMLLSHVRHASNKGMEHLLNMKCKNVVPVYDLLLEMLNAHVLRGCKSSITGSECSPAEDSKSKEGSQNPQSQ

Regarding `Oc1ccc([C@@H]2CCc3cc(O)ccc3O2)cc1`, the pKi at Estrogen receptor beta was 7.68.
As to `Oc1ccc([C@H]2Oc3ccc(O)cc3[C@H]3CCCC[C@H]32)cc1`, the negative-log Ki (pKi) on Estrogen receptor beta is 9.20; at Estrogen receptor, 8.54.
As for `Oc1ccc([C@H]2Oc3ccc(O)cc3[C@H]3CCCCC[C@H]32)cc1`, the results for the pKi at Estrogen receptor beta and at Estrogen receptor were 9.06 and 8.21, respectively.
The molecule `Oc1cccc([C@H]2Oc3ccc(O)cc3[C@H]3CCC[C@H]32)c1` gave a negative-log Ki (pKi) on Estrogen receptor of 7.19.
Turning to `Oc1ccc([C@H]2Oc3ccccc3[C@H]3CCC[C@H]32)cc1`, the negative-log Ki (pKi) at Estrogen receptor beta is 7.66; at Estrogen receptor, 7.40.
Take `Oc1ccc([C@H]2Oc3cccc(O)c3[C@H]3CCC[C@H]32)cc1`: the pKi at Estrogen receptor beta was 9.18; at Estrogen receptor it was 9.46.
Regarding `Oc1ccc([C@H]2Oc3cc(O)ccc3[C@H]3CCC[C@H]32)cc1`, the results for the pKi at Estrogen receptor beta and on Estrogen receptor were 7.72 and 7.39, respectively.
`Oc1ccc2c(c1)[C@H]1CCC[C@H]1[C@@H](c1ccccc1)O2`: the pKi at Estrogen receptor is 6.57.

For the origin of these results see ChEMBL document CHEMBL1148875, “Benzopyrans as selective estrogen receptor beta agonists (SERBAs). Part 2: structure-activity relationship studies on the benzopyran scaffold” (Bioorg Med Chem Lett, 2007).
